Inhibition data for 33 compounds are collected here from patent publication US6140354A, “N-substituted aminotetralins as ligands for the neuropeptide Y Y5 receptor useful in the treatment of obesity and other disorders” (Ortho-McNeil Pharmaceutical, Inc., priority 1999, dated 2000).

The target of the experiment is T1, human neuropeptide Y5 receptor (Homo sapiens, UniProt Q15761).
T1 construct: expressed in transfected cells
T1 sequence (Q15761 1-445): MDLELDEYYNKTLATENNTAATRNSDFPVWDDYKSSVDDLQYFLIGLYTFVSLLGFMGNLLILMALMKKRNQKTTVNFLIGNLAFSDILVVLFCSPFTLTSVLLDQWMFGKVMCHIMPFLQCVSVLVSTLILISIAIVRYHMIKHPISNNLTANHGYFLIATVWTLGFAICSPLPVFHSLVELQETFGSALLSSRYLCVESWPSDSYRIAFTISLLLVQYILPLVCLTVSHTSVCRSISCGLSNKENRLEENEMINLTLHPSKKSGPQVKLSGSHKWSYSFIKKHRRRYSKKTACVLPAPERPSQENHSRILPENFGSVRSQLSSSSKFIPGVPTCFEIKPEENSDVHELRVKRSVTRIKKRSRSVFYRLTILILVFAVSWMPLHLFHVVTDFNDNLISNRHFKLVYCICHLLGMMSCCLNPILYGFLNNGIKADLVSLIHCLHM
Nature of the experiment: NPY5 HTS Centrifugation Assay: competition with 125I-PYY for binding to NPY5-transfected HEK293 cell membranes. To be noted: 80 pM 125I-PYY, 1 hr room temperature, read-out: % Inh @ 3 uM (% Inhibition of ^125 I-PYY Binding). On the procedure:
The compounds described in this invention were evaluated for binding to the human neuropeptide Y5 receptor.
The human NPY5 receptor cDNA (Genbank Accession number U66275) was inserted into the vector pClneo (Invitrogen) and transfected into human embryonic kidney cells (HEK-293) via Calcium phosphate method (Cullen 1987). Stably transfected cells were selected with G-418 (600 ug/mL). Stably transfected cells served as the source for the membranes for the NPY5 receptor binding assay.
NPY5-transfected HEK293 cells were grown to confluence in 150 cm^2 culture dishes. Cells were washed once with phosphate-buffered saline (Gibco Cat#14040-133). Cells were then incubated in phosphate-buffered saline without Calcium and without Magnesium, supplemented with 2 mM EDTA. Cells were incubated for 10 minutes at room temperature and the cells were collected by repetitive pipeting. Cells were formed into pellets and then frozen at -80 until needed. Frozen pellets were homogenized with a polytron at full speed for 12 seconds in a homogenization buffer (20 mM Tris HCl, 5 mM EDTA, pH 7.4). Homogenates were centrifuged for 5 minutes at 4C at 200 g. Supernatants were transferred to corex tubes and centrifuged for 25 minutes at 28,000 g. Pellets were re-suspended in Binding (20 mM HEPES, 10 mM NaCl, 0.22 mM KH2 PO4, 1.3 mM CaCl2, 0.8 mM MgSO4, pH 7.4). Membranes were kept on ice until use.
A competition binding assay, known to those skilled in the art, was used in which aminotetralins (I) compete with ^125 I-PYY for binding to cell membranes. In simple terms, the less ^125 I-PYY bound to the membranes implies that a compound is a good inhibitor (competitor). Bound ^125 I-PYY is determined by centrifugation of membranes, aspirating supernatant, washing away residual ^125 I-PYY and subsequently counting the bound sample in a g-counter.
Compounds to be tested were prepared as 10× stocks in binding buffer and added first to assay tubes (RIA vials, Sarstedt). Twenty (20) μL of each 10× compound stock is pipeted into vials and 80 μL of ^125 I-PYY (NEN catalog number NEX240), which has been diluted to a concentration of 200 pM in 0.25% BSA in binding buffer, is added to the compound tubes (final concentration of ^125 I-PYY is 80 pM). To each tube is added 100 μL of membranes and the mixture is agitated by pipeting 2 times. Samples are incubated for 1 hr at room temperature. Aluminum cast plates (Sarstedt) containing the vials are then centrifuged 10 minutes at 3200 rpm in a Sorvall RT6000. Supernatant is then aspirated. To each vial 400 μL PBS is added and this is then aspirated again. Vials are then put in carrier polypropylene 12×75 tube and counted in gamma counter (Packard). Non-specific binding is determined in the presence of 300 nM NPY. Percent inhibition of ^125 I-PYY binding is calculated by subtracting non-specific binding from the test samples (compound (I)), taking these counts and dividing by total binding, and multiplying by 100. Inhibitory concentration values (IC50) of compounds that show appreciable inhibition of ^125 I-PYY binding are calculated by obtaining percent inhibition of ^125 I-PYY binding values at different concentrations of the test compound, and using a graphing program such as GraphPad Prism (San Diego, Calif.) to calculate the concentration of test compound that inhibits fifty-percent of ^125 I-PYY binding (Table 4). These operations are known to those skilled in the art.

A word on the inhibition: it is the relative decrease from the control value, in per cent. With `COc1ccc2c(c1)CC[C@H](NC[C@H]1CC[C@H](CNS(=O)(=O)c3ccccc3)CC1)[C@@H]2CCCO` (relative stereo) [Compound 40, rac-[1α,2α(trans)]-N-[[[[[1,2,3,4-tetrahydro-6-methoxy-1-(3-hydroxypropyl)-2-naphthalenyl]amino]methyl]-4-cyclohexyl]methyl] benzenesulfonamide], the inhibition at 3 µM is 91%.

With `O=S(=O)(NC[C@H]1CC[C@H](CNC2CCc3ccc(Cl)cc3C2Cc2ccccc2)CC1)c1ccccc1` (stereo partly drawn) [Compound 104], the inhibition at 3 µM stood at 97%.

As to `C=CC[C@@H]1c2ccc(OC)cc2CC[C@@H]1NC[C@H]1CC[C@H](CNS(=O)(=O)c2ccccc2)CC1` (relative stereo) [Compound 39, rac-[1α,2α(trans)]-N-[[[[[1,2,3,4-tetrahydro-6-methoxy-1-(1-propene-3-yl)-2-naphthalenyl]amino]methyl]4-cyclohexyl]methyl] benzenesulfonamide], the inhibition at 3 µM came to 102%.

Regarding `COc1ccc2c(c1)CC[C@H](NCc1ccc(CNS(=O)(=O)c3ccc4ccccc4c3)cc1)[C@@H]2Cc1ccccc1` (relative stereo) [Compound 49], the inhibition at 3 µM worked out at 60%.

Regarding `COc1ccc2c(c1)CCC(NC[C@H]1CC[C@H](CNS(=O)(=O)c3ccccc3)CC1)C2Cc1ccc2ccccc2c1` (relative stereo) [Compound 81], the inhibition at 3 µM worked out at 89%.

On to `COc1ccc2c(c1)CCC(NC[C@H]1CC[C@H](CNS(=O)(=O)c3ccc(S(C)(=O)=O)cc3)CC1)C2Cc1ccccc1` (relative stereo) [Compound 55], for which the inhibition at 3 µM turned out to be 90%.

As for `COc1ccc2c(c1)CCC(NC[C@H]1CC[C@H](CNS(=O)(=O)c3ccccc3)CC1)C2Cc1cccc(C(F)(F)F)c1` (stereo partly drawn) [Compound 99], the inhibition at 3 µM stood at 99%.

Consider `COc1ccc2c(c1)CCC(NC[C@H]1CC[C@H](CNS(=O)(=O)c3ccccc3)CC1)C2Cc1ccccc1OC` (relative stereo) [Compound 85], for which the inhibition at 3 µM amounted to 74%.

Take `COc1ccc2c(c1)CCC(NC[C@H]1CC[C@H](CNS(=O)(=O)c3ccccc3F)CC1)C2Cc1ccccc1` (relative stereo) [Compound 57]: the inhibition at 3 µM came to 98%.

For the compound `COc1ccc2c(c1)CC[C@H](NC[C@H]1CC[C@H](CNS(=O)(=O)c3cccc4ccccc34)CC1)[C@@H]2Cc1ccccc1` (relative stereo) [Compound 51], the inhibition at 3 µM was found to be 95%.

On to `COc1cc2c(cc1OC)C(Cc1ccccc1)C(NC[C@H]1CC[C@H](CNS(=O)(=O)c3ccccc3)CC1)CC2` (relative stereo) [Compound 108], for which the inhibition at 3 µM is 99%.

Take `O=S(=O)(NC[C@H]1CC[C@H](CN[C@H]2CCc3cc(F)ccc3[C@H]2Cc2ccccc2)CC1)c1ccccc1F` (relative stereo) [Compound 26, rac-[1α,2α(trans)]-N-[[[[[1,2,3,4-tetrahydro-6-fluoro-1-(3-phenylmethyl)-2-naphthalenyl]amino]methyl]-4-cyclohexyl]methyl]2-fluorobenzenesulfonamide]: the inhibition at 3 µM was 107%.

For `COc1ccc2c(c1)CCC(NC[C@H]1CC[C@H](CNS(=O)(=O)c3ccc4ccccc4c3)CC1)C2Cc1ccc2ccccc2c1` (relative stereo) [Compound 82], the inhibition at 3 µM amounted to 54%.

For `COc1ccc2c(c1)CCC(NC[C@H]1CC[C@H](CNS(=O)(=O)c3ccccc3[N+](=O)[O-])CC1)C2Cc1ccc([N+](=O)[O-])cc1` (relative stereo) [Compound 88], the inhibition at 3 µM was 85%.

With `O=S(=O)(NC[C@H]1CC[C@H](CNC2CCc3cc(F)ccc3C2Cc2ccccc2)CC1)c1c(Cl)cccc1Cl` (stereo partly drawn) [Compound 77], the inhibition at 3 µM was 102%.

For the compound `O=S(=O)(NC[C@H]1CC[C@H](CNC2CCc3cc(F)ccc3C2Cc2ccccc2)CC1)c1ccccc1Br` (relative stereo) [Compound 74], the inhibition at 3 µM was 105%.

Take `COc1ccc2c(c1)CCC(NC1CCC(NS(=O)(=O)c3ccc4ccccc4c3)CC1)C2Cc1ccccc1` (stereo not drawn) [Compound 50]: the inhibition at 3 µM is 44%.

For the compound `COc1ccc2c(c1)CC[C@H](NC[C@H]1CC[C@H](CNS(=O)(=O)c3cccs3)CC1)[C@@H]2Cc1ccccc1` (relative stereo) [Compound 59], the inhibition at 3 µM is 102%.

On to `O=S(=O)(NC[C@H]1CC[C@H](CNC2CCc3cc(O)ccc3C2Cc2ccccc2)CC1)c1ccccc1` (stereo partly drawn) [Compound 71], for which the inhibition at 3 µM amounted to 102%.

As to `COc1ccc2c(c1)CCC(NC[C@H]1CC[C@H](CNS(=O)(=O)c3ccccc3[N+](=O)[O-])CC1)C2Cc1ccccc1OC` (stereo partly drawn) [Compound 91], the inhibition at 3 µM stood at 92%.

Regarding `O=S(=O)(NCCCCNC1CCc2ccccc2C1Cc1ccccc1)c1ccc2ccccc2c1` (stereo not drawn) [Compound 45], the inhibition at 3 µM turned out to be 58%.

Turning to `COc1ccc2c(c1)CCC(NC[C@H]1CC[C@H](CNS(=O)(=O)c3ccccc3C(F)(F)F)CC1)C2Cc1ccccc1` (stereo partly drawn) [Compound 65], the inhibition at 3 µM is 0%.

Consider `O=S(=O)(NC[C@H]1CC[C@H](CNC2CCc3cc(F)ccc3C2Cc2ccccc2)CC1)c1ccc(Cl)cc1Cl` (stereo partly drawn) [Compound 76], for which the inhibition at 3 µM was determined as 99%.

On to `COc1ccc2c(c1)CCC(NC[C@H]1CC[C@H](CNS(=O)(=O)c3ccccc3)CC1)C2Cc1ccc(Cl)cc1` (relative stereo) [Compound 97], for which the inhibition at 3 µM came out at 90%.

Regarding `COc1ccc2c(c1)CC[C@H](NC[C@H]1CC[C@H](CNS(=O)(=O)c3ccc4ccccc4c3)CC1)[C@@H]2Cc1cccnc1` (relative stereo) [Compound 18, rac-[1α,2α(trans)]-N-[[[[[1,2,3,4-tetrahydro-6-methoxy-1-(3-pyridinylmethyl)-2-naphthalenyl]amino]methyl]-4-cyclohexyl]methyl]2-naphthalenesulfonamide], the inhibition at 3 µM turned out to be 96%.

Take `COc1cccc(CC2c3ccc(OC)cc3CCC2NC[C@H]2CC[C@H](CNS(=O)(=O)c3ccc4ccccc4c3)CC2)c1` (stereo partly drawn) [Compound 84]: the inhibition at 3 µM stood at 82%.

With `COc1ccc2c(c1)CCC(NC[C@H]1CC[C@H](CNS(=O)(=O)c3ccccc3)CC1)C2Cc1ccc(C(F)(F)F)cc1` (stereo partly drawn) [Compound 100], the inhibition at 3 µM is 93%.

Regarding `O=S(=O)(NC[C@H]1CC[C@H](CNC2CCc3cc(F)c(F)cc3C2Cc2ccccc2)CC1)c1ccccc1` (relative stereo) [Compound 107], the inhibition at 3 µM was 103%.

With `O=S(=O)(NC[C@H]1CC[C@H](CNC2CCc3cc(O)c(O)cc3C2Cc2ccccc2)CC1)c1ccccc1` (relative stereo) [Compound 109], the inhibition at 3 µM is 101%.

`COc1ccc2c(c1)CCC(NC[C@H]1CC[C@H](CNS(=O)(=O)c3ccccc3)CC1)C2Cc1c(F)cccc1F` (relative stereo) [Compound 89]: the inhibition at 3 µM is 98%.

With `COc1ccc2c(c1)CCC(NC[C@H]1CC[C@H](CNS(=O)(=O)c3cc(Cl)cc(Cl)c3)CC1)C2Cc1ccccc1` (relative stereo) [Compound 56], the inhibition at 3 µM amounted to 73%.

On to `COc1ccc2c(c1)CCC(NC[C@H]1CC[C@H](CNS(=O)(=O)c3ccc4ccccc4c3)CC1)C2Cc1cccc(C(F)(F)F)c1` (stereo partly drawn) [Compound 94], for which the inhibition at 3 µM came to 45%.

Take `COc1cccc(CC2c3ccc(OC)cc3CCC2NC[C@H]2CC[C@H](CNS(=O)(=O)c3ccccc3)CC2)c1` (relative stereo) [Compound 83]: the inhibition at 3 µM came out at 92%.
